Measured values taken from patent US12139472B2, “Inhibitors of advanced glycation end products” (priority 2019, dated 2024).

How the values were obtained:
[1] = Pharmacokinetic study for PTG-630 (IV and PO): plasma, whole blood, tissues, urine; format: in vivo, Sprague Dawley rats
Experimental: The samples were analyzed in two batches with standards and QCs prepared on rat plasma and rat urine. Analyst® 1.6 (SCIEX) software was used for statistical analysis of bioanalytical data. […] Dose samples collected at 0.083 h-6 h postdose were diluted 4 times with SD rat plasma prior to plating. Twenty-four (24) hours plasma samples were assayed without dilution. […] Two sciatic nerve samples were excluded from analysis, due to the insufficient sample size. […] The 12 non-cannulated animals were arbitrarily assigned to groups upon arrival and housed together throughout the experiment. The animals were acclimated to their designated housing for at least 24 hours before the first day of dosing. […] Blood samples were collected via cannula from IV dosed rats or by cardiac stick from PO dosed rats at the specified time points for sampling pharmacokinetics. Blood was collected into K2EDTA tubes. Tubes were mixed gently after blood collection, chilled and centrifuged at 3000 rpm, 4° C. within 30 minutes upon collection. The samples were centrifuged at 4° C. and the resultant plasma separated. […] Urine from Group 1 was collected via polycarbonate tubes from rats placed in drug metabolism cages. Urine was maintained and room temperature through the collection period.

[2] = Preparation of dosing solutions in 0.5% methyl cellulose and 0.1% Tween 20 in water; format: physicochemical; settings: 0.5% methyl cellulose
Experimental: Compound 5 (PTG-630 free base) and Compound 19 (PTG-630 HCl salt) solutions were prepared in 0.5% methyl cellulose and 0.1% Tween 20 in water for administration to animals by oral gavage (PO).
Compound 5 was administered at 10 mg/kg and 100 mg/kg. […] The solution was vortexed vigorously for minutes and then sonicated in a water bath for 5 min. The solution remained as a thick creamy yellowish suspension at pH 8. The solution for the 10 mg/kg free base dose (2 mg/ml solution) was easier to prepare. […] The final solution that was administered was a clear, light yellowish solution with few small particulates in suspension.
Compound 19 was administered at 10 mg/kg. […] The solution (2 mg/ml) was clear yellowish (although lighter than the Compound 5 solution at 2 mg/ml) with no particulates in suspension. The pH decreased to 3.

CYP2D6 = target: T1, CYP2D6 (Homo sapiens, UniProt P10635); assay: CYP2D6 inhibition (HLM), dextromethorphan; format: in vitro ADME
T1 construct: Two studies were conducted in human liver microsomes (HLM); tissue Eurofins G232 panel; host or cells: human liver microsomes
Experimental: (§1) Compound 5 (PTG-630 free base) and 7 additional compounds for CYP3A P450 inhibition.
(§2) Two studies were conducted in human liver microsomes (HLM). Lead candidate PTG-630 was tested using the Eurofins G232 panel (Drug Metab Dispos. 2001 January; 29(1):23-9), where inhibition was measured against seven CYP enzymes; CYP3A4 was tested using two different substrates, midazolam and testosterone. In a second study, inhibition of CYP3A4 (midazolam substrate only) was compared for 8 compounds of interest. The test protocol involved one-point measurements in duplicate, where inhibition was measured at a fixed 10 μM concentration of candidate inhibitors. In all cases, the substrate for each CYP enzyme was at a concentration equal to its specific Km value that was independently obtained from an 8-point dose-response study. Based on the observed value for percent inhibition for each test compound, we calculated of an IC50 assuming a competitive mode of inhibition. If percent inhibition for an inhibitor at a concentration of [I] is denoted by P, then: IC50=[I]*(100−P)/P In the single-point assay, [I] is 10 μM. If measured inhibition is 10%, then IC50=10*(100-10)/10=90 μM. […] As discussed in Lin et al. (J Pharm Sci. 2007 September; 96(9):2485-93; doi: 10.1002/jps.20884), CYP inhibition is broadly interpreted as being “potent” if IC50<1 μM, “moderate” if 1 μM<IC50<10 μM, and “weak” if IC50>10 μM.

CYP3A [3] = format: in vitro ADME, human; settings: HLM
Excerpt: as §1
(§3) Imidazole (and benzimidazole) containing drugs are ubiquitous in pharmacological practice; however, drug-drug interactions (DDI) have been observed with some imidazole-containing classes, such as the antifungal azoles typified by ketoconazole. It is believed that the imidazole moiety accounts for their ability to inhibit CYP3A, the major DDI enzyme that metabolizes up to 50% of common drugs. The compounds of the disclosure incorporate an imidazole moiety attached to a pyridine ring via the imidazole C-2. They all share an imidazo-hydroxypyridine theme that can bind redox metal ions, while differing in the nature of the X side-chain. The potential of the compounds of the disclosure for DDI was evaluated by screening their inhibition of CYP3A.
as §2

CYP3A [4] = target: T2, CYP3A (Homo sapiens, UniProt P08684); format: in vitro ADME; settings: HLM
T2 construct: Two studies were conducted in human liver microsomes (HLM); tissue Eurofins G232 panel; host or cells: human liver microsomes
Excerpt: as §1, §3
Two studies were conducted in human liver microsomes (HLM). Lead candidate PTG-630 was tested using the Eurofins G232 panel (Drug Metab Dispos. 2001 January; 29(1):23-9), where inhibition was measured against seven CYP enzymes; CYP3A4 was tested using two different substrates, midazolam and testosterone. In a second study, inhibition of CYP3A4 (midazolam substrate only) was compared for 8 compounds of interest. The test protocol involved one-point measurements in duplicate, where inhibition was measured at a fixed 10 μM concentration of candidate inhibitors. In all cases, the substrate for each CYP enzyme was at a concentration equal to its specific Km value that was independently obtained from an 8-point dose-response study. Based on the observed value for percent inhibition for each test compound, we calculated of an IC50 assuming a competitive mode of inhibition. If percent inhibition for an inhibitor at a concentration of [I] is denoted by P, then: IC50=[I]*(100−P)/P In the single-point assay, [I] is 10 μM. If measured inhibition is 10%, then IC50=10*(100-10)/10=90 μM. […]

[5] = plasma, PO 100 mg/kg vs IV 5 mg/kg

T2 sequence (P08684 2-503): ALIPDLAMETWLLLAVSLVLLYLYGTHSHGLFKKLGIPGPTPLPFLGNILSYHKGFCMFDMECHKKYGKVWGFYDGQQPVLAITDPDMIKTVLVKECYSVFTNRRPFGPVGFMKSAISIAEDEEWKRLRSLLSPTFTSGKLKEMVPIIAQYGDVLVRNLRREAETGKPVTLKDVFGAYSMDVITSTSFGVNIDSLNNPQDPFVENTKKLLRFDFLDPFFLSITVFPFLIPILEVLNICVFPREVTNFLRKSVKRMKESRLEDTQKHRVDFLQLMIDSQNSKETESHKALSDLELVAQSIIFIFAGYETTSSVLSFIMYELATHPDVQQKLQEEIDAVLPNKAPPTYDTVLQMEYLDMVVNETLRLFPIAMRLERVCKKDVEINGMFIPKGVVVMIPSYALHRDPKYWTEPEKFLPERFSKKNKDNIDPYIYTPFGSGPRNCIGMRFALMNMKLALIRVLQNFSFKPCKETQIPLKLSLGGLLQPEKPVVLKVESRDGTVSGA
T1 sequence (P10635 whole entry): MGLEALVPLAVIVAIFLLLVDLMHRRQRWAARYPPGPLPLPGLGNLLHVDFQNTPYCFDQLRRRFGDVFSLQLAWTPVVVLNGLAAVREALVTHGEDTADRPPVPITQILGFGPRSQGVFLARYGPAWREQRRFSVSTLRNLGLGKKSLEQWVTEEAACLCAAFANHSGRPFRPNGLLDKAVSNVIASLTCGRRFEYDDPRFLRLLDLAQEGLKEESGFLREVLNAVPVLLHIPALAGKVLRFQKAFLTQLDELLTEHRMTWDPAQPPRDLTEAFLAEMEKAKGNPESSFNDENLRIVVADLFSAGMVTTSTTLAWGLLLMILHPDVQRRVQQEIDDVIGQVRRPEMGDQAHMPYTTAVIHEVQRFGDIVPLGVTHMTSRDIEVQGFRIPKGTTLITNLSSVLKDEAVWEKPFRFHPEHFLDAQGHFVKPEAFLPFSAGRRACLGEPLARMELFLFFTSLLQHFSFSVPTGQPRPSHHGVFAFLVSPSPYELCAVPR

Cc1ncc(CN2CCOCC2)c(-c2ncc[nH]2)c1O [PTG-630]
fold decrease in AUClast for PO route over IV route [1, 5]: 4 fold
fold decrease in mean Cmax for PO route over IV route [1, 5]: 17 fold
Mean Residence Time (MRT) in plasma, single IV versus PO group ([1]; rat, in vivo): comparable
bioavailable, PO route, based on AUCinf ([1]; rat, in vivo): < 1%
increase in the half-life in plasma, IV route in comparison with PO route ([1]; rat, in vivo): 4.25 folds
terminal phase half-life ([1]; rat, in vivo, iv): 15.8 h
AUClast ([1]; rat, in vivo, iv, 5 mg/kg): 34000 ng·h/mL
Cmax ([1]; rat, in vivo, iv, 5 mg/kg): 20,400 ng/mL
AUC last in liver higher than in plasma ([1]; rat, in vivo, po): 2.6 folds
Elimination phase half-life (t1/2) ([1]; rat, in vivo, po): 1.35 h
Half-life ([1]; rat, in vivo, po): 4.53 h
Tmax in tissues ([1]; rat, in vivo, po): 1 h
absorption in tissues (in words) ([1]; rat, in vivo, po): rapidly absorbed in tissues without delay
detection in tissues 24 hours postdose ([1]; rat, in vivo, po): not detectable in any tissue, except plasma
exposure in kidney higher than in plasma, based on Cmax ([1]; rat, in vivo, po): 3.4 folds
exposure in liver higher than in plasma, based on Cmax ([1]; rat, in vivo, po): 5.47 folds
exposure in muscle (lowest) versus plasma ([1]; rat, in vivo, po): comparable to those in plasma
half-life ([1]; rat, in vivo, po): 3.71 h
half-life in brain relative to plasma (times higher) ([1]; rat, in vivo, po): 1.3 times
level of exposure in selected tissues exceeds the exposure in plasma (up to) ([1]; rat, in vivo, po): 3-5 folds
quantifiable in tissues ([1]; rat, in vivo, po): quantifiable in all tested tissues
AUClast ([1]; rat, in vivo, po, 100 mg/kg): 8600 ng·h/mL
blood brain permeability (in words) ([1]; rat, po): indicating blood brain permeability
dissolution in vehicle ([2]; 2 mg/ml solution (10 mg/kg dose)): few small particles remained
dissolution in vehicle ([2]; 20 mg/ml solution (100 mg/kg dose)): difficult to dissolve
Estimated IC50 (CYP2D6; dextromethorphan, from one-point % inhibition at 10 μM, IC50=[I]*(100−P)/P): — None
P % inhib (CYP2D6; substrate dextromethorphan at Km, Inhib Conc. 1.0E−05 M): −0.83%
Estimated IC50 (CYP3A [3]; midazolam, from one-point % inhibition at 10 μM, IC50=[I]*(100−P)/P): — None
P % inhib (CYP3A [3]; substrate midazolam at Km, Inhib Conc. 1.0E−05 M): −12.1%
P % inhib (CYP3A [4]; CYP3A, substrate testosterone at Km, Inhib Conc. 1.0E−05 M): 1.56%
IC50 (CYP3A [4]; CYP3A, testosterone, from one-point % inhibition at 10 μM, IC50=[I]*(100−P)/P, read-out: Estimated IC50): 631 µM
CYP3A inhibition using testosterone as substrate (in words) (CYP3A [4]; 10 μM): very weak inhibition
